A word on the IC50: it is the concentration needed to halve the response being measured.

The target of the test is EHMT2 (Euchromatic histone-lysine N-methyltransferase 2) (Homo sapiens (Human), UniProt Q96KQ7). The test is described as follows: EHMT2 enzyme inhibition, LANCE TR-FRET. It is filed as biochemical. The note with it: histone H3 peptide, 1 hour at room temperature. The method, then: In order to analyze the enzyme inhibitory efficacy of the compounds of Examples 1 to 89, EHMT2 (Euchromatic histone-lysine N-methyltransferase 2) enzyme activity was measured using the LANCE TR-FRET™ analysis method of Perkin Elmer. When the EHMT2 enzyme is activated, the 9th lysine residue of the biotinylated-histone peptide is methylated and the EU-conjugated antibody is combined to the methylated histone peptide. Then, when the complex is irradiated with light of excitation wavelength, the complex emits light having a wavelength of 665 nm through FRET phenomenon. Accordingly, fluorescence was measured, and IC50 values were calculated through a software to evaluate the EHMT2 enzyme activity inhibitory effect of the compounds of Examples 1 to 89.
Chain of EHMT2 (Euchromatic histone-lysine N-methyltransferase 2) (Q96KQ7 whole entry): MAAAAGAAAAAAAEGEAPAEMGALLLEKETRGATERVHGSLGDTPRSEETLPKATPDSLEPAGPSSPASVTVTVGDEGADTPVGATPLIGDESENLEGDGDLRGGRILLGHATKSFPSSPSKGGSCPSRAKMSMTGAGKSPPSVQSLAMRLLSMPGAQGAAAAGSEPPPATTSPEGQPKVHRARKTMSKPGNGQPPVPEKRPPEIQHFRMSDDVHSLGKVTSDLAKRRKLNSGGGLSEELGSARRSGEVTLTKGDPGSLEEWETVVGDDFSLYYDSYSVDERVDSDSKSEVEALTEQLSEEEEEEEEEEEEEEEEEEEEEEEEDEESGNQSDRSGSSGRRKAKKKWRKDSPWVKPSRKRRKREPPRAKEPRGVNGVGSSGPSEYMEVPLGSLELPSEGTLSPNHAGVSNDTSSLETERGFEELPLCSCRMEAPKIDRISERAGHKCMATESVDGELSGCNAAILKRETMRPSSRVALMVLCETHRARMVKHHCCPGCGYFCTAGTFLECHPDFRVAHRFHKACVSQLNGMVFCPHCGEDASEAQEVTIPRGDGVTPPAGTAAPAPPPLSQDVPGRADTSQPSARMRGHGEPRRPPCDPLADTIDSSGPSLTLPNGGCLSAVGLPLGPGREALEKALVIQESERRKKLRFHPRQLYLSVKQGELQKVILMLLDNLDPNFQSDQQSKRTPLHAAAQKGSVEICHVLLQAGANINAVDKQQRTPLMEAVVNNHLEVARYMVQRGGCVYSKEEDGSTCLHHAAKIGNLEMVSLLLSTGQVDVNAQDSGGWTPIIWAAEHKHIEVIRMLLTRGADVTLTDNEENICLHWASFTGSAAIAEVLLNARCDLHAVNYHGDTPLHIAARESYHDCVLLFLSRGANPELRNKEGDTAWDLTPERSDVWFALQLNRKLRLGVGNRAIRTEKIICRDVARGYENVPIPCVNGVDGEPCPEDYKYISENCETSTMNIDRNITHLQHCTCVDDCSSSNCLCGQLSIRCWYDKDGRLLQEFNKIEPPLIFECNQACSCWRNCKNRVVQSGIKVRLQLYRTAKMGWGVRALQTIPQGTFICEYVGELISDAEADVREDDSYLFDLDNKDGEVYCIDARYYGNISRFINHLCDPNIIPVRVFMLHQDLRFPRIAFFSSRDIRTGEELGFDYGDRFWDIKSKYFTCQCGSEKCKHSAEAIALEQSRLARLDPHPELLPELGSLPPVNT
Specific experimental methods are as follows. First, the compounds of Examples 1 to 89 of 1 nM to 100 μM (4× conc.) were put into a 384 well plate (25 μL/well), and 2 μM EEMT2/G9a enzyme (4× conc.) was put into the 384 well plate (25 μL/well). The plate was then centrifuged at 1,500 rpm for 5 seconds after sealing the plate with plate sealing foil. After incubating the EHMT2/G9a enzyme, SAM, and the compounds of Examples above at room temperature for 10 minutes, 2 μM histone H3 peptide (4× conc.) was added to the 384-well plate (25 μL/well). After sealing the plate with plate sealing foil and centrifuging at 1,500 rpm for 5 seconds, an enzymatic reaction was performed at room temperature for 1 hour. Upon completion of the enzyme reaction, 5 μL each of 200 nM Ulight™-Streptavidin (4× conc.) and 8 nM Eu-antibody (4× conc.) was added to each well of the plate. The plate was sealed with plate sealing foil, centrifuged at 1,500 rpm for 5 seconds and reacted at room temperature for 1 hour. The signal values were measured with Envision (Ex 320 nm, Em 665 nm), and all background values obtained by reacting without enzyme were deleted from the measured raw data values. Then, the EHMT2 enzyme activity inhibitory effect of the compounds of Examples 1 to 89 was converted into % values, and compared with the EHMT2 activity when treated with 4% DMSO vehicle (=0 nM compound) as 100%.
`COc1cc2c(NC3CCN(C(C)C)CC3)nc(N3CCCCC3)nc2cc1C#CCCN1CCCCC1` [Example 12, N-(1-isopropylpiperidine-4-yl)-6-methoxy-2-(piperidine-1-yl)-7-(4-(piperidine-1-yl)-1-butyne-1-yl)quinazoline-4-amine] yielded an IC50 of less than 100 nM. Turning to `CCCN1CCC(Nc2nc(N3CCCCC3)nc3cc(C#CCCN4CCCC4)c(OC)cc23)CC1` [Example 67, 6-methoxy-2-(piperidine-1-yl)-N-(1-propylpiperidine-4-yl)-7-(4-(pyrrolidine-1-yl)-1-butyne-1-yl)quinazoline-4-amine], the IC50 was less than 100 nM. The figure for `CCN1CCC(Nc2nc(N3CC[C@@H](F)C3)nc3cc(C#CCCN4CCCC4)c(OC)cc23)CC1` [Example 77, (R)-N-(1-ethylpiperidine-4-yl)-2-(3-fluoropyrrolidine-1-yl)-6-methoxy-7-(4-(pyrrolidine-1-yl)-1-butyne-1-yl)quinazoline-4-amine] is less than 100 nM; for `COc1cc2c(NC3CCN(C(C)C)CC3)nc(N3C[C@@H]4C[C@@H]4[C@@H]3CO)nc2cc1C#CCCN(C)C` [Example 10, ((1S,2R,5R)-3-(7-(4-(dimethylamino)-1-butyne-1-yl)-4-((1-isopropylpiperidine-4-yl)amino)-6-methoxyquinazoline-2-yl)-3-azabicyclo[3.1.0]hexane-2-yl)methanol] it is 100 to 1000 nM. As for `COc1cc2c(NC3CCN(C(C)C)CC3)nc(N3CCCCC3)nc2cc1C#CCCN1CC[C@@H](F)C1` [Example 30, (R)-7-(4-(3-fluoropyrrolidine-1-yl)-1-butyne-1-yl)-N-(1-isopropylpiperidine-4-yl)-6-methoxy-2-(piperidine-1-yl)quinazoline-4-amine], the IC50 lay within 100 to 1000 nM.

The compound `COc1cc2c(NCCN(C)C)nc(N3CCCN(C)CC3)nc2cc1C#CCCN1CCCC1` [Example 62, N1-(6-methoxy-2-(4-methyl-1,4-diazepane-1-yl)-7-(4-(pyrrolidine-1-yl)-1-butyne-1-yl)quinazoline-4-yl)-N2,N2-dimethylethane-1,2-diamine] yielded an IC50 of less than 100 nM. `CCN1CCC(Nc2nc(N3CCCC3)nc3cc(C#CCCN4CCCC4)c(OC)cc23)CC1` [Example 64, N-(1-ethylpiperidine-4-yl)-6-methoxy-2-(pyrrolidine-1-yl)-7-(4-(pyrrolidine-1-yl)-1-butyne-1-yl)quinazoline-4-amine] registered an IC50 of less than 100 nM. In the case of `COc1cc2c(NC3CCN(C(C)C)CC3)nc(N3CCOCC3)nc2cc1C#CCCN(C)C` [Example 5, 7-(4-(dimethylamino)-1-butyne-1-yl)-N-(1-isopropylpiperidine-4-yl)-6-methoxy-2-morpholinoquinazoline-4-amine] it was 10000 to 100000 nM; in that of `COc1cc2c(NC3CCN(C(C)C)CC3)nc(N3CCC4(CCCC4)C3)nc2cc1C#CCCN1CCCC1` [Example 40, N-(1-isopropylpiperidine-4-yl)-6-methoxy-7-(4-(pyrrolidine-1-yl)-1-butyne-1-yl)-2-(2-azaspiro[4.4]nonane-2-yl)quinazoline-4-amine], 100 to 1000 nM. In the case of `COc1cc2c(NC3CCN(C(C)C)CC3)nc(N3CCCN(C)CC3)nc2cc1C#CCCN1CCCCC1` [Example 45, N-(1-isopropylpiperidine-4-yl)-6-methoxy-2-(4-methyl1,4-diazepane-1-yl)-7-(4-(piperidine-1-yl)-1-butyne-1-yl)quinazoline-4-amine] it was less than 100 nM; in that of `COc1cc2c(NC3CCN(C(C)C)CC3)nc(N3CCCCC3)nc2cc1/C=C/CCN1CCCCC1` [Example 66, (E)-N-(1-isopropylpiperidine-4-yl)-6-methoxy-2-(piperidine-1-yl)-7-(4-(piperidine-1-yl)-1-butene-1-yl)quinazoline-4-amine], less than 100 nM; in that of `COc1cc2c(NCCN(C)C)nc(N3CC[C@@H](F)C3)nc2cc1C#CCCN1CCCC1` [Example 80, (R)-N1-(2-(3-fluoropyrrolidine-1-yl)-6-methoxy-7-(4-(pyrrolidine-1-yl)-1-butyne-1-yl)quinazoline-4-yl)-N2,N2-dimethylethane-1,2-diamine], 100 to 1000 nM. In the case of `COc1cc2c(NC3CCN(CCO)CC3)nc(N3CCCC3)nc2cc1C#CCCN1CCCC1` [Example 70, 2-(4-((6-methoxy-2-(pyrrolidine-1-yl)-7-(4-(pyrrolidine-1-yl)-1-butyne-1-yl)quinazoline-4-yl)amino)piperidine-1-yl)ethanol] it was less than 100 nM.

`COc1cc2c(NC3CCN(C(C)C)CC3)nc(N3CCCCCC3)nc2cc1C#CCCN1CCCCC1` [Example 37, 2-(azepane-1-yl)-N-(1-isopropylpiperidine-4-yl)-6-methoxy-7-(4-(piperidine-1-yl)-1-butyne-1-yl)quinazoline-4-amine] yielded an IC50 of 100 to 1000 nM. With `COc1cc2c(NC3CCN(C(C)C)CC3)nc(N3CCCCC3)nc2cc1C#CCCC(=O)N(C)C` [Example 1, 5-(4-((1-isopropylpiperidine-4-yl)amino)-6-methoxy-2-(piperidine-1-yl)quinazoline-7-yl)-N,N-dimethylpentyne-4-amide], the IC50 fell in the range of 10000 to 100000 nM. In turn, `COc1cc2c(NCCN3CCCC3)nc(N3CCCCC3)nc2cc1C#CCCN(C)C` [Example 20, 7-(4-(dimethylamino)-1-butyne-1-yl)-6-methoxy-2-(piperidine-1-yl)-N-(2-(pyrrolidine-1-yl)ethyl)quinazoline-4-amine] displayed an IC50 of 1000 to 10000 nM. In the case of `COc1cc2c(NC3CCN(C(C)C)CC3)nc(N3CCCC3)nc2cc1C#CCCN1CCCCC1` [Example 43, N-(1-isopropylpiperidine-4-yl)-6-methoxy-7-(4-(piperidine-1-yl)-1-butyne-1-yl)-2-(pyrrolidine-1-yl)quinazoline-4-amine] it was less than 100 nM; in that of `CCN1CCC(Nc2nc(N3CCCCC3)nc3cc(C#CCCN4CCCC4)c(OC)cc23)CC1` [Example 51, N-(1-ethylpiperidine-4-yl)-6-methoxy-2-(piperidine-1-yl)-7-(4-(pyrrolidine-1-yl)-1-butyne-1-yl)quinazoline-4-amine], less than 100 nM; in that of `COc1cc2c(NC3CCN(Cc4ccccc4)CC3)nc(N3CCCCC3)nc2cc1C#CCCN(C)C` [Example 18, N-(1-benzylpiperidine-4-yl)-7-(4-(dimethylamino)-1-butyne-1-yl)-6-methoxy-2-(piperidine-1-yl)quinazoline-4-amine], 1000 to 10000 nM.

Compound `COc1cc2c(NC3CCN(C4CC4)CC3)nc(N3CCCC3)nc2cc1C#CCCN1CCCC1` [Example 54, N-(1-cyclopropylpiperidine-4-yl)-6-methoxy-2-(pyrrolidine-1-yl)-7-(4-(pyrrolidine-1-yl)-1-butyne-1-yl)quinazoline-4-amine] had an IC50 of less than 100 nM. In the case of `CCN(CC)CCC#Cc1cc2nc(N3CCCCC3)nc(NC3CCN(C(C)C)CC3)c2cc1OC` [Example 13, 7-(4-(diethylamino)-1-butyne-1-yl)-N-(1-isopropylpiperidine-4-yl)-6-methoxy-2-(piperidine-1-yl)quinazoline-4-amine] it was 1000 to 10000 nM; in that of `COc1cc2c(NC3CCN(C(C)C)CC3)nc(N3CC(F)C3)nc2cc1C#CCCN1CCCC1` [Example 59, 2-(3-fluoroazetidine-1-yl)-N-(1-isopropylpiperidine-4-yl)-6-methoxy-7-(4-(pyrrolidine-1-yl)-1-butyne-1-yl)quinazoline-4-amine], less than 100 nM.

The values above are taken from patent publication US20230365530A1, “QUINAZOLINE-2,4-DIAMINE DERIVATIVE AND PHARMACEUTICAL COMPOSITION FOR PREVENTING OR TREATING CANCER COMPRISING SAME AS ACTIVE INGREDIENT” (THE ASEAN FOUNDATION, priority 2020, published 2023).
